Data on 14 compounds can be found in patent publication US10800778B2 (Entasis Therapeutics Limited, priority 2016, dated 2020).

A short description of data set [1]: Stability in pH 7.4 buffer (no enzyme). Format: physicochemical. The following applies: read-out: T1/2 pH 7.4 Buffer. How it is done:
(§1) The human intestinal S9 with the absence of PMSF, human liver S9, rat intestinal S9, and rat liver S9 preparations were obtained from Xenotech (Lenexa, Kans.). The 500-μL incubation solution contained 0.8 mg/mL of enzyme (or no enzyme for buffer stability), 10 μM of test compounds in 100 mM of HEPES buffer, pH 7.4. The hydrolysis reactions were conducted in a 1-mL glass insert (Analytical Sales, Pompton Plains, N.J.) in a shake water bath at 37° C. At 0, 2, 5, 10, 15, 30 and 60 min, the reaction was terminated by pipetting 50 μL incubate to a 96 DeepWell plate (Thermo Fisher Scientific, Rochester, N.Y.) containing 100 μL of acetonitrile with 250 ng/mL of Carbutamide (Sigma-Aldrich, St. Louis, Miss.) as the internal standard. The crashed solutions were then vortexed well followed by centrifuge at 4000 rpm for 15 min at 4° C. The extract was transferred to a new 96 DeepWell plate for LC-MS/MS analysis.
(§2) LC-MS/MS analysis was done using an AB Sciex QTrap 6500 mass spectrometer under positive ionization mode, coupled to a Schimadzu Nexera LC system.
(§3) A Waters Atlantis T3 (3 μm, 3.0×50 mm) column was used for separation. The mobile phase consisted 0.1% formic acid in water (A) and 0.1% formic acid in acetonitrile (B) with a flow rate set at 1.2 mL/min. For the prodrug analysis, the Multiple Reaction Monitoring (MRM) specific for each compound was set up so that both prodrug and its hydrolyzed active can be monitored simultaneously.
(§4) Half-lives listed are based on disappearance of starting ester.

A short description of data set [2]: Stability/conversion of esters in rat intestinal S9. Format: in vitro ADME. The procedure:
as §1, §2, §3, §4

A short description of data set [3]: Stability/conversion of esters in rat liver S9. The format is in vitro ADME. The procedure:
as §1, §2, §3, §4

The nature of data set [4]: Stability/conversion of esters in human intestinal S9. Format: in vitro ADME. How it is done: as §1, §2, §3, §4
A short description of data set [5]: Stability/conversion of esters in human liver S9. The format is in vitro ADME. How it is done:
as §1, §2, §3, §4

Setting [6] is: intestinal S9, pH 7.4, read-out: T1/2 Rat Intestinal S9.
Where [7] appears, read: liver S9, pH 7.4, read-out: T1/2 Rat Liver S9.
Where [8] appears, read: intestinal S9 (without PMSF), pH 7.4, read-out: T1/2 Human Intestinal S9.
Setting [9] is: liver S9, pH 7.4, read-out: T1/2 Human Liver S9.
Where [10] appears, read: s9, pH 7.4, read-out: T1/2 Rat Intestinal S9.
[11] abbreviates: s9, pH 7.4, read-out: T1/2 Rat Liver S9.
Where [12] appears, read: s9, pH 7.4, read-out: T1/2 Human Intestinal S9.
Where [13] appears, read: s9, pH 7.4, read-out: T1/2 Human Liver S9.

As for `CC1=C[C@@H]2CN(C(=O)N2O[C@H](F)C(=O)OC(C(C)C)C(C)C)[C@@H]1C(N)=O` [Example 15, 2,4-dimethylpentan-3-yl (2R)-{[(2S,5R)-2-carbamoyl-3-methyl-7-oxo-1,6-diazabicyclo[3.2.1]oct-3-en-6-yl]oxy}(fluoro)ethanoate], the half-life at 10 μM is 98 min in data set [1] (HEPES buffer without enzyme); greater than 100 min in data set [2] (setting [6]); 1.5 min in data set [3] (setting [7]); greater than 100 min in data set [4] (setting [8]); 12.4 min in data set [5] (setting [9]).

As to `COCCOC(=O)[C@@H](F)ON1C(=O)N2C[C@H]1C=C(C)[C@H]2C(N)=O` [Example 18, 2-methoxyethyl (2R)-{[(2S,5R)-2-carbamoyl-3-methyl-7-oxo-1,6-diazabicyclo[3.2.1]oct-3-en-6-yl]oxy}(fluoro)ethanoate], the half-life at 10 μM is 18 min in data set [1] (HEPES buffer without enzyme); 16 min in data set [2] (setting [6]); 7 min in data set [3] (setting [7]); 15 min in data set [4] (setting [8]); 9.2 min in data set [5] (setting [9]).

On to `CC[C@H](C)OC(=O)[C@@H](F)ON1C(=O)N2C[C@H]1C=C(C)[C@H]2C(N)=O` [Example 20, (2R)-(S)-sec-butyl 2-(((2S,5R)-2-carbamoyl-3-methyl-7-oxo-1,6-diazabicyclo[3.2.1]oct-3-en-6-yl)oxy)-2-fluoroacetate], for which the half-life at 10 μM in data set [1] (buffer) was 39 min; in data set [2] (setting [10]), 54 min; in data set [3] (setting [11]), 6.1 min; in data set [4] (setting [12]), 40 min; in data set [5] (setting [13]), 5.1 min.

As for `CC[C@@H](C)OC(=O)[C@@H](F)ON1C(=O)N2C[C@H]1C=C(C)[C@H]2C(N)=O` [Example 22, (2R)-(R)-sec-butyl 2-(((2S,5R)-2-carbamoyl-3-methyl-7-oxo-1,6-diazabicyclo[3.2.1]oct-3-en-6-yl)oxy)-2-fluoroacetate], the half-life at 10 μM worked out at 38 min in data set [1] (buffer); 56 min in data set [2] (setting [10]); 9.2 min in data set [3] (setting [11]); 43 min in data set [4] (setting [12]); 4.6 min in data set [5] (setting [13]).

Take `CCOC(=O)[C@@H](F)ON1C(=O)N2C[C@H]1C(C)=C[C@H]2C(N)=O` [Example 31, (2R)-ethyl 2-(((2S,5R)-2-carbamoyl-4-methyl-7-oxo-1,6-diazabicyclo[3.2.1]oct-3-en-6-yl)oxy)-2-fluoroacetate]: the half-life at 10 μM in data set [1] (buffer) stood at 44 min; in data set [2] (setting [10]), 42 min; in data set [3] (setting [11]), 20 min; in data set [4] (setting [12]), 35 min; in data set [5] (setting [13]) it was 27 min.

`CCOC(=O)[C@H](F)ON1C(=O)N2C[C@H]1C(C)=C[C@H]2C(N)=O` [Example 32, (2S)-ethyl 2-(((2S,5R)-2-carbamoyl-4-methyl-7-oxo-1,6-diazabicyclo[3.2.1]oct-3-en-6-yl)oxy)-2-fluoroacetate]: the half-life at 10 μM in data set [1] (buffer) was determined as 22 min; in data set [2] (setting [10]), 18 min; in data set [3] (setting [11]), 2.4 min; in data set [4] (setting [12]), 6.9 min; in data set [5] (setting [13]), 2.4 min.

In the case of `CC1=C[C@@H](C(N)=O)N2C[C@@H]1N(O[C@@H](F)C(=O)OC(C)C)C2=O` [Example 36, (2S)-isopropyl 2-(((2S,5R)-2-carbamoyl-4-methyl-7-oxo-1,6-diazabicyclo[3.2.1]oct-3-en-6-yl)oxy)-2-fluoroacetate], the half-life at 10 μM in data set [1] (buffer) was 91 min; in data set [2] (setting [10]), 68 min; in data set [3] (setting [11]) it was 3 min; in data set [4] (setting [12]), 36 min; in data set [5] (setting [13]) it was 8.5 min.

Consider `CCCCCCCCOC(=O)[C@@H](F)ON1C(=O)N2C[C@H]1C=C(C)[C@H]2C(N)=O` [Example 45, octyl (2R)-2-[[(2S,5R)-2-carbamoyl-3-methyl-7-oxo-1,6-diazabicyclo[3.2.1]oct-3-en-6-yl]oxy]-2-fluoro-acetate], for which the half-life at 10 μM in data set [1] (HEPES buffer without enzyme) is 33 min; in data set [2] (setting [6]), 17 min; in data set [3] (setting [7]) it was 0.22 min; in data set [4] (setting [8]), 2 min; in data set [5] (setting [9]), 0.39 min.

Turning to `C=CCOC(=O)[C@@H](F)ON1C(=O)N2C[C@H]1C=C(C)[C@H]2C(N)=O` [Example 47, allyl (2R)-2-[[(2S,5R)-2-carbamoyl-3-methyl-7-oxo-1,6-diazabicyclo[3.2.1]oct-3-en-6-yl]oxy]-2-fluoro-acetate], the half-life at 10 μM in data set [1] (HEPES buffer without enzyme) turned out to be 12 min; in data set [2] (setting [6]), 11 min; in data set [3] (setting [7]) it was 1.8 min; in data set [4] (setting [8]) it was 8.2 min; in data set [5] (setting [9]), 2.3 min.

For the compound `CCCOC(=O)[C@@H](F)ON1C(=O)N2C[C@H]1C=C(C)[C@H]2C(N)=O` [Example 48, propyl (2R)-2-[[(2S,5R)-2-carbamoyl-3-methyl-7-oxo-1,6-diazabicyclo[3.2.1]oct-3-en-6-yl]oxy]-2-fluoro-acetate], the half-life at 10 μM in data set [1] (HEPES buffer without enzyme) was 62 min; in data set [2] (setting [6]), 50 min; in data set [3] (setting [7]) it was 3 min; in data set [4] (setting [8]), 42 min; in data set [5] (setting [9]), 6.1 min.

Regarding `CC1=C[C@@H]2CN(C(=O)N2O[C@H](F)C(=O)OCC(C)C)[C@@H]1C(N)=O` [Example 49, isobutyl (2R)-2-[[(2S,5R)-2-carbamoyl-3-methyl-7-oxo-1,6-diazabicyclo[3.2.1]oct-3-en-6-yl]oxy]-2-fluoro-acetate], the half-life at 10 μM in data set [1] (HEPES buffer without enzyme) was 68 min; in data set [2] (setting [6]), 26 min; in data set [3] (setting [7]), 1.8 min; in data set [4] (setting [8]) it was 32 min; in data set [5] (setting [9]), 6.9 min.

Take `CCCCOC(=O)[C@@H](F)ON1C(=O)N2C[C@H]1C=C(C)[C@H]2C(N)=O` [Example 50, butyl (2R)-2-[[(2S,5R)-2-carbamoyl-3-methyl-7-oxo-1,6-diazabicyclo[3.2.1]oct-3-en-6-yl]oxy]-2-fluoro-acetate]: the half-life at 10 μM was determined as 120 min in data set [1] (HEPES buffer without enzyme); 30 min in data set [2] (setting [6]); 2.8 min in data set [3] (setting [7]); 73 min in data set [4] (setting [8]); 3.5 min in data set [5] (setting [9]).

On to `CCCCCOC(=O)[C@@H](F)ON1C(=O)N2C[C@H]1C=C(C)[C@H]2C(N)=O` [Example 51, pentyl (2R)-2-[[(2S,5R)-2-carbamoyl-3-methyl-7-oxo-1,6-diazabicyclo[3.2.1]oct-3-en-6-yl]oxy]-2-fluoro-acetate], for which the half-life at 10 μM is 75 min in data set [1] (HEPES buffer without enzyme); 4.1 min in data set [2] (setting [6]); 1.7 min in data set [3] (setting [7]); 1.5 min in data set [4] (setting [8]); 6.4 min in data set [5] (setting [9]).

`CCCCCCOC(=O)[C@@H](F)ON1C(=O)N2C[C@H]1C=C(C)[C@H]2C(N)=O` [Example 52, hexyl (2R)-2-[[(2S,5R)-2-carbamoyl-3-methyl-7-oxo-1,6-diazabicyclo[3.2.1]oct-3-en-6-yl]oxy]-2-fluoro-acetate]: the half-life at 10 μM amounted to 76 min in data set [1] (HEPES buffer without enzyme); 39 min in data set [2] (setting [6]); 0.45 min in data set [3] (setting [7]); 5.7 min in data set [4] (setting [8]); 0.84 min in data set [5] (setting [9]).
